According to ChEMBL document CHEMBL4842364 (J Med Chem, 2021):
Calls of active or inactive are those of the source. The rule behind the calls is not given here.

Key:
[1] = Oral bioavailability in Beagle dog at 10 mg/kg measured upto 24 hrs by LC-MS/MS analysis; format: ADME, organism-based, Canis lupus familiaris; conditions: in vivo
[2] = Cmax in Beagle dog at 10 mg/kg, po measured upto 24 hrs by LC-MS/MS analysis; format: ADME, organism-based, Canis lupus familiaris; parameters: route oral, dose 10 mg/kg, time <=24; conditions: in vivo
[3] = target: Epidermal growth factor receptor (Homo sapiens, UniProt P00533, 747-749DEL/A750P); assay: Inhibition of EGFR d747-749/A750P mutant (unknown origin)
[4] = target: Wee1-like protein kinase (Homo sapiens, UniProt P30291)
Description: Displacement of Alexa Fluor labelled kinase tracer178 from WEE1 (unknown origin) incubated for 60 mins by FRET assay

[5] = target: T1, Serine/threonine-protein kinase PLK1 (Homo sapiens, UniProt P53350); assay: Inhibition of PLK1 (unknown origin)
[6] = target: T2, Mitogen-activated protein kinase kinase kinase 19 (Homo sapiens) (UniProt Q56UN5); assay: Inhibition of YSK4 (unknown origin) at 1 uM relative to control
T2 sequence (whole entry): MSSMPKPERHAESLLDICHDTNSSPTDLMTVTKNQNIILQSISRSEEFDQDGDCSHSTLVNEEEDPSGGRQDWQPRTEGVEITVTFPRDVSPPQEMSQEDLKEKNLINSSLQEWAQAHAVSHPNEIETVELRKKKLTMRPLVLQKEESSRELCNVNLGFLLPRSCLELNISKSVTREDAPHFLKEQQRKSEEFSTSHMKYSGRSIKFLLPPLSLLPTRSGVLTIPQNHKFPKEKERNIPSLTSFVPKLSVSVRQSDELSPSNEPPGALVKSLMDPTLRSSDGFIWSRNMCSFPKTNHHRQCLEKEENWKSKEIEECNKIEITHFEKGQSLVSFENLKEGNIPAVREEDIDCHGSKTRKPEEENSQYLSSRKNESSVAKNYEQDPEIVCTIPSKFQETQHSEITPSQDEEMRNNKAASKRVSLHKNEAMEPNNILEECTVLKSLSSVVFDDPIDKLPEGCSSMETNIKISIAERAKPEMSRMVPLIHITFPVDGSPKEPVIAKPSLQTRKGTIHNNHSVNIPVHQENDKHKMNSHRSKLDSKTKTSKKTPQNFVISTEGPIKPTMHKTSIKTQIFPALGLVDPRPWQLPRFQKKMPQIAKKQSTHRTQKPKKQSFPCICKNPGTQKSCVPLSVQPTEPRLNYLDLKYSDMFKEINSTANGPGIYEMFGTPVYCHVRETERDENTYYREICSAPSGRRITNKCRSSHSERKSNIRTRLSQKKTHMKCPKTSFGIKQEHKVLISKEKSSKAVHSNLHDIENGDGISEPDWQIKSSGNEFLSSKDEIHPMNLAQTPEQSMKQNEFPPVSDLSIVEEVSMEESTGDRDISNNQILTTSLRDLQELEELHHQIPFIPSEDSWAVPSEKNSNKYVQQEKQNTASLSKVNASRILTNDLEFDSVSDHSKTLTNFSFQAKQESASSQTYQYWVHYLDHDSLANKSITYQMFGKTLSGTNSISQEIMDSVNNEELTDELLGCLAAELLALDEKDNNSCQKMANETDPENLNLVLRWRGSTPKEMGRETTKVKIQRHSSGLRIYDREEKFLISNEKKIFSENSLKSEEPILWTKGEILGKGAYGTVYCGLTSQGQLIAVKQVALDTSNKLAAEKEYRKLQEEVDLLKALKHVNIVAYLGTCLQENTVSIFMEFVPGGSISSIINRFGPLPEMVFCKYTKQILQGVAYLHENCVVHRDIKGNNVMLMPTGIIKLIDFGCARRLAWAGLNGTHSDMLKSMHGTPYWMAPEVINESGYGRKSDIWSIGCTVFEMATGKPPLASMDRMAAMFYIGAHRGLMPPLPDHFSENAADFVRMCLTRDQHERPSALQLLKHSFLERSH

[7] = Permeability of the compound across basolateral to apical side in human Caco-2 cells; format: ADME, cell-based; conditions: read-out: permeability
[8] = Clearance in Beagle dog at 3 mg/kg, iv measured upto 24 hrs by LC-MS/MS analysis; format: ADME, organism-based, Canis lupus familiaris; conditions: in vivo
[9] = target: Tyrosine-protein kinase Lck (Homo sapiens) (UniProt P06239); assay: Inhibition of LCK (unknown origin) at 1 uM relative to control
[10] = target: Serine/threonine-protein kinase PLK3 (Homo sapiens, UniProt Q9H4B4); assay: Inhibition of PLK3 (unknown origin)
[11] = Octanol/buffer distribution coefficient, logD of the compound at pH 7.4; format: physicochemical
[12] = Plasma protein binding in human; format: ADME, cell-free; conditions: read-out: PPB (converted)
[13] = target: T1, Serine/threonine-protein kinase PLK1; assay: Inhibition of PLK1 (unknown origin) at 1 uM relative to control
[14] = test system: A-427; assay: Antitumor activity against human A-427 cells xenografted in SCID mouse assessed as reduction in tumor growth at 80 mg/kg, po administered once daily for 28 days and measured twice per weeks; format: functional, organism-based; conditions: time 28.0 day
[15] = Intrinsic clearance in human microsomes; format: ADME, Microsome
[16] = target: T3, Mitogen-activated protein kinase kinase kinase 3 (Homo sapiens) (UniProt Q99759); assay: Inhibition of MAP3K3 (unknown origin) at 1 uM relative to control
T3 sequence (whole entry): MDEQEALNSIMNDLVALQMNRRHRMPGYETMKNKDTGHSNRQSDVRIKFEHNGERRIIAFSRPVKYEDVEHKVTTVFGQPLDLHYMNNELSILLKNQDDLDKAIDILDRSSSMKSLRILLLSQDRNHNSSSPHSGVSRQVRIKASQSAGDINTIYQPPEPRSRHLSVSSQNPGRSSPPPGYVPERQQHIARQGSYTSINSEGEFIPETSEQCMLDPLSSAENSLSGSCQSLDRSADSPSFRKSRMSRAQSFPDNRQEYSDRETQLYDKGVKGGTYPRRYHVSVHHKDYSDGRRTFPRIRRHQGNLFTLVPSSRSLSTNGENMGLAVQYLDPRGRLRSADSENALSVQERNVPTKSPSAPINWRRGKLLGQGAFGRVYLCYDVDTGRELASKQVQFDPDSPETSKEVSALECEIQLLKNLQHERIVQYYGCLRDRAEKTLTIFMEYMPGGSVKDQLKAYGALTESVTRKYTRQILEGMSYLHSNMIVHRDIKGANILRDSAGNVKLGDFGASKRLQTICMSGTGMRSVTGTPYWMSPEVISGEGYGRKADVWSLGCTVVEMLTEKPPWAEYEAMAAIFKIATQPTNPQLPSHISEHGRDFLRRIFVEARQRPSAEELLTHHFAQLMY

[17] = target: Cytochrome P450 3A4 (Homo sapiens, UniProt P08684); assay: Inhibition of CYP3A4 (unknown origin); format: ADME
[18] = AUC in mouse plasma at 80 mg/kg, po administered once daily for 28 days; format: ADME, organism-based; parameters: time 28 day, dose 80 mg/kg
[19] = Intrinsic clearance in human hepatocytes; format: ADME, cell-based, Hepatocyte; conditions: read-out: CLH
[20] = Efflux ratio of permeability from basolateral to apical side over apical to basolateral side in human Caco-2 cells; format: ADME, cell-based
[21] = AUC in Beagle dog at 10 mg/kg, po measured upto 24 hrs by LC-MS/MS analysis; format: ADME, organism-based, Canis lupus familiaris; parameters: route oral, dose 10 mg/kg, time <=24; conditions: in vivo
[22] = target: Serine/threonine-protein kinase PLK2 (Homo sapiens, UniProt Q9NYY3); assay: Inhibition of PLK2 (unknown origin)
Chain of Serine/threonine-protein kinase PLK2 (Q9NYY3 whole entry): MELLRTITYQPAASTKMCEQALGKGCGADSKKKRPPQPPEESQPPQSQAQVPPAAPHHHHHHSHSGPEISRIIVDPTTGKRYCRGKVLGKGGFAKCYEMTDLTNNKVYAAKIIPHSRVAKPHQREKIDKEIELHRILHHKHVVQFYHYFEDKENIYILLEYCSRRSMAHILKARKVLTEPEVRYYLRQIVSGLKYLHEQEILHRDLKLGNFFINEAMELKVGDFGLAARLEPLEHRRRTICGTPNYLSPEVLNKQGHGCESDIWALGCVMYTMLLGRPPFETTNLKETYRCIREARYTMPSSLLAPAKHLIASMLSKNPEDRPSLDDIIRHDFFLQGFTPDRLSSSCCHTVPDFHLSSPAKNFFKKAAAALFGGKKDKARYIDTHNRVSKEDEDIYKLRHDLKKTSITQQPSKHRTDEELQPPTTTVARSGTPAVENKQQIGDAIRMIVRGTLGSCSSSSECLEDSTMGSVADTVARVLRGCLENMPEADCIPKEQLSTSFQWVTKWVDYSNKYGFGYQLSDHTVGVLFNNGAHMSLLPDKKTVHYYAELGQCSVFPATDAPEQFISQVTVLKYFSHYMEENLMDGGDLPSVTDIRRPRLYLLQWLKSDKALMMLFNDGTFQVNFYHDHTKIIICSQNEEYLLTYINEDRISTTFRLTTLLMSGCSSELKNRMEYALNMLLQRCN

T1 sequence (P53350 whole entry): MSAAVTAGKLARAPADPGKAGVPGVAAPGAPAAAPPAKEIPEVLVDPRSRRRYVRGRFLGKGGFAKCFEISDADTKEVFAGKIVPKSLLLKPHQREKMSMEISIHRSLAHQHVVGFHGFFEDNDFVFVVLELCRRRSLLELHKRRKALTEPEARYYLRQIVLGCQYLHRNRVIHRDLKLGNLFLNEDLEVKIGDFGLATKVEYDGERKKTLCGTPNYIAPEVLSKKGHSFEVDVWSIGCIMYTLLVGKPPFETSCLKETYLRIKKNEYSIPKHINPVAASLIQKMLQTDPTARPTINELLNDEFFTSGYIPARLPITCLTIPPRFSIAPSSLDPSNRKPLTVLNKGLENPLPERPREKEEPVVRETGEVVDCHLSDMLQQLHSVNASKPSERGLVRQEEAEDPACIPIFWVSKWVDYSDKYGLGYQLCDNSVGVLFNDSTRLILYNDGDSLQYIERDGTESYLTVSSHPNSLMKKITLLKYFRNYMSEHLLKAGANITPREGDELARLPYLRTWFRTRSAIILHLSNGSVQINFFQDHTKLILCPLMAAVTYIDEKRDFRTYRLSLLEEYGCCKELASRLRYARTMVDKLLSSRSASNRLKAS
Chain of Epidermal growth factor receptor (P00533 whole entry, looked up, stated change not applied): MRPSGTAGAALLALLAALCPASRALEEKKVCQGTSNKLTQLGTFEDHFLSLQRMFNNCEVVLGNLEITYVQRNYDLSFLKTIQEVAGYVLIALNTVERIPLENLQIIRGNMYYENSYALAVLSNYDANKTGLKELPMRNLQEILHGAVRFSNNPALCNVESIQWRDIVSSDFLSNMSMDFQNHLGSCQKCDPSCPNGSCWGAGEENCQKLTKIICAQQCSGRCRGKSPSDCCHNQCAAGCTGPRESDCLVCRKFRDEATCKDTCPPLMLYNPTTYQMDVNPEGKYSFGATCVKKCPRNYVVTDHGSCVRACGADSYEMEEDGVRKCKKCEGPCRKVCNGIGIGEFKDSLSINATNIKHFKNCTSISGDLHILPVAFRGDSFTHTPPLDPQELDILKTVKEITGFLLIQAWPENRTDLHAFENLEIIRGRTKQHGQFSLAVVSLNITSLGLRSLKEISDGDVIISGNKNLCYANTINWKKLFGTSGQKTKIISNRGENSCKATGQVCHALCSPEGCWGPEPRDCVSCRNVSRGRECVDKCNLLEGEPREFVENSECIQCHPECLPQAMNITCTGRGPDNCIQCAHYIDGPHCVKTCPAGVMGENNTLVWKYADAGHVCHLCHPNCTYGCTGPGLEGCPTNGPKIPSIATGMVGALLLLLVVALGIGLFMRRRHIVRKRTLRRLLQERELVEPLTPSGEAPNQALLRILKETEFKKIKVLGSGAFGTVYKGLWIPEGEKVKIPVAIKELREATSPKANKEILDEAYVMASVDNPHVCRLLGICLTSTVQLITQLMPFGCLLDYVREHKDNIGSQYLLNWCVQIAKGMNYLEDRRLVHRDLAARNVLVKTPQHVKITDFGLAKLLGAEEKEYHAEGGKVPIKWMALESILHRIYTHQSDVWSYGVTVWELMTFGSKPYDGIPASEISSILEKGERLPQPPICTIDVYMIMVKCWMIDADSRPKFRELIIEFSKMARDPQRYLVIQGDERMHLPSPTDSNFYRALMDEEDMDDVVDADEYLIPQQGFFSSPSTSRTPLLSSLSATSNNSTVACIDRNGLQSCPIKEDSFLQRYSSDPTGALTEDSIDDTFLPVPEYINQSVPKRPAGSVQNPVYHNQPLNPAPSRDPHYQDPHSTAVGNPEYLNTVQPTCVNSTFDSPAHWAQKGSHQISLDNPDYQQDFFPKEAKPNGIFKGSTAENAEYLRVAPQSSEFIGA
Chain of Wee1-like protein kinase (P30291 whole entry): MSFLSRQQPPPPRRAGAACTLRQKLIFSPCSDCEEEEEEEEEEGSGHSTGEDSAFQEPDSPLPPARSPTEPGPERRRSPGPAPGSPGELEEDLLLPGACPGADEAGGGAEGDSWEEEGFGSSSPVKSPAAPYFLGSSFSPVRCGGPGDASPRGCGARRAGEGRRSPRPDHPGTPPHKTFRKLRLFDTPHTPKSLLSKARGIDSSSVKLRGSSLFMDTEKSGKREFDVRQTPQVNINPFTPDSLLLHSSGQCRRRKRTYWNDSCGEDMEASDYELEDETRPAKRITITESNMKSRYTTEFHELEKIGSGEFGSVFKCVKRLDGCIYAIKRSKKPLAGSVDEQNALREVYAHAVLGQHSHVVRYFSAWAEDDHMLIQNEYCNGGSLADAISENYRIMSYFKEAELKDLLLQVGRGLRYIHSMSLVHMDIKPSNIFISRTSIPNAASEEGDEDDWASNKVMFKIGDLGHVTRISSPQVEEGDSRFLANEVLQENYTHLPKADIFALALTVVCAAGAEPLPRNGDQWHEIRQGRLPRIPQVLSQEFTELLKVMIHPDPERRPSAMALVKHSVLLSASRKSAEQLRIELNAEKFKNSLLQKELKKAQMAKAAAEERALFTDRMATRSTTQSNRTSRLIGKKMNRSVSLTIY
Chain of Serine/threonine-protein kinase PLK3 (Q9H4B4 whole entry): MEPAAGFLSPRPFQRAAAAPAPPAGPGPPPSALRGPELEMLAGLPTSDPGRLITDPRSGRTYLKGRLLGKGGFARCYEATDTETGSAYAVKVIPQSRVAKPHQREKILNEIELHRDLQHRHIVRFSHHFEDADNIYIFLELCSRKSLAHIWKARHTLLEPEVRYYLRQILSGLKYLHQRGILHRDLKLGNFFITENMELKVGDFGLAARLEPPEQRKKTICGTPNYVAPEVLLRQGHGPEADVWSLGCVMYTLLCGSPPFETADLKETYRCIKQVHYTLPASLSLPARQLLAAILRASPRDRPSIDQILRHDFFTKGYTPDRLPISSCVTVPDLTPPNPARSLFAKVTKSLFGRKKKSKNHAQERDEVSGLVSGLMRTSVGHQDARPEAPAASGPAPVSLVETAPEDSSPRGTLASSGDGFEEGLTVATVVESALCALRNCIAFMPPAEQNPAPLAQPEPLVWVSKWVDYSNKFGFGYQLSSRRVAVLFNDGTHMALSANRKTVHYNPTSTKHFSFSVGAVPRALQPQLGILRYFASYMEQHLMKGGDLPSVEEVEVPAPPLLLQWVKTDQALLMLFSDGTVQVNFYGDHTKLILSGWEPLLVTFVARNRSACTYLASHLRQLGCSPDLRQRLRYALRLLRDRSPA
Chain of Cytochrome P450 3A4 (P08684 whole entry): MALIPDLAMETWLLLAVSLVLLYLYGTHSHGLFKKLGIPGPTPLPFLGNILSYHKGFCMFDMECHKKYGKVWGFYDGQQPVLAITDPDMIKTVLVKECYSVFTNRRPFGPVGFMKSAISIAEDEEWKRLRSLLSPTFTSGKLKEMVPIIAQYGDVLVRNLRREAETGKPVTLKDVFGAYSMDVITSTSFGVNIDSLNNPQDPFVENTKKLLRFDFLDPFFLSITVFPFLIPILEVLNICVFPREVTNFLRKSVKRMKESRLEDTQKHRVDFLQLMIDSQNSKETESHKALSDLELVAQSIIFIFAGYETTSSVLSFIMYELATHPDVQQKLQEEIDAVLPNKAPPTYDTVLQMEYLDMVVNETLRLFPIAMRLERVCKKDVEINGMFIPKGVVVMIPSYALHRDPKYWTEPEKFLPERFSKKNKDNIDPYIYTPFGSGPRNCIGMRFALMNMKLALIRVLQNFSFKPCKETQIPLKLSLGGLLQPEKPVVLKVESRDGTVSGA
Chain of Tyrosine-protein kinase Lck (Homo sapiens) (P06239 2-509 limits assumed): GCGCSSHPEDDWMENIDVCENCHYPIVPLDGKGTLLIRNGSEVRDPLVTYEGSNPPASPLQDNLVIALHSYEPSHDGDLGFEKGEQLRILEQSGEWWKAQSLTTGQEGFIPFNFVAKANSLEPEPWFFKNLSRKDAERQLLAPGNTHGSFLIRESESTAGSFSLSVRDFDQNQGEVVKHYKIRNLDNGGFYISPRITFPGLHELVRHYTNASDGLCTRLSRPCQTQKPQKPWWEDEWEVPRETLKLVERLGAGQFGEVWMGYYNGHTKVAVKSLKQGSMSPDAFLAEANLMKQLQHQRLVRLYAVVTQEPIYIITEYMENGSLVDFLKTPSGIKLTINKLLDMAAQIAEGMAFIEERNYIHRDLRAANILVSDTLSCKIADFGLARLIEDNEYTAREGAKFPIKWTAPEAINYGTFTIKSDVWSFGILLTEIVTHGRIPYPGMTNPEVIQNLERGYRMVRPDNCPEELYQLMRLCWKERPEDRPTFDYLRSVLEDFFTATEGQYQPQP

bioavailability [1]: 142% | Cmax [2]: 2100 nM | IC50 [3]: 60 nM | IC50 [4]: 3.9 nM | IC50 [5]: 227 nM | inhibition [6]: > 90% | Papp B→A [7]: 25.5 ×10⁻⁶ cm/s | clearance [8]: 46 mL/min/kg | inhibition [9]: 75% | IC50 [10]: 70 nM | logD [11]: 2.4 | fraction unbound [12]: 0.34 | inhibition [13]: 75% | CLint scaled [15]: 40 mL/min/kg | inhibition [16]: 75% | IC50 [17]: 7000 nM | AUC at 672 h [18]: 45 µM·h | CLint scaled [19]: < 18 mL/min/kg | efflux ratio [20]: 7 | AUC at 24 h [21]: 9.7 µM·h | IC50 [22]: 40 nM
Structure (SMILES): C=CCn1c(=O)c2cnc(Nc3ccc(N4CCN(C)CC4)cc3)nc2n1-c1ccc2c(n1)C(O)(CC)CC2 (racemic)
Activity [14]: Active
